Reference: patent publication US20030153585A1, “Pharmaceutical preparations containing 2-pyrrolidone as the dissolving intermediary” (priority 2000, published 2003)
Converted amounts (≈) assume the structure as drawn.

Experiment: physchem
Conditions: water

## COc1ccc(C(=O)N2CCCc3cc(C4=NNC(=O)SC4C)ccc32)cc1OC (stereo not shown) [thiadiazinone, 5-[1-(3,4-dimethoxybenzoyl)-1,2,3,4-tetrahydroquinolin-6-yl]-6-methyl-3,6-dihydro-1,3,4-thiadiazin-2-one]
  solubility: 2 µg/mL (≈ 4.7 µM)
